From patent publication US20040115150A1, “Cosmetics and treatment method for promoting maturation of cornified envelopes” (priority 2001, published 2004)

Tests used:
[1] = system: immature CE (cornified envelope) in stratum corneum; assay: CE Maturation Promoting Test, incubation varied to 37° C. and 100% relative humidity for a day; design: species or system human
Protocol: (§1) Stratum corneum containing many immature CE's were taken from the subjects suffering from skin troubles such as chapping, by means of tape stripping. To the stratum corneum still adhering to the tapes, a test solution was applied, followed by 4 days' incubation under the conditions of 30° C. in temperature and 70% in humidity. After end of the incubation, a tris-hydrochloric acid buffer solution containing dithiothreitol and sodium dodecylsulfate was added, followed by 10 minutes' heating at 100° C. The insoluble matter was collected by centrifuge at 4000 g for 10 minutes. Addition of the eluate and heating cycle was further repeated to thoroughly remove the soluble component. Thus obtained insoluble matter was used as CE.
Properties of each CE thus isolated were evaluated by the following method: CE was spotted on a piece of slide glass, air-dried and fixed in cold acetone. Hydrating the same with Dulbecco's phosphate buffered saline, it was reacted with mouse anti-human involucrin antibody (NOVOCASTRA Co.) as the primary antibody. Excessive antibody was removed by washing and the residue was reacted with FITC-labeled rabbit anti-mouse immunoglobulin antibody as the secondary antibody. Excessive antibody was removed by washing, and the residue was reacted with Nile Red dye solution, sealed and observed with a fluorescence microscope. The observed images were taken into computer via CCD camera, and the ratio of involucrin positive immature CE and that of Nile Red-positive mature CE were evaluated using an image analysis software (Win Roof) or the like.
Procedures similar to Example 1 were repeated, except that the incubation conditions were varied to 37° C. and 100% (relative humidity) for a day.

[2] = system: immature CE (cornified envelope) in stratum corneum; assay: CE Maturation Promoting Test (tape-stripped stratum corneum, 4 days' incubation at 30° C., 70% humidity); design: species or system human; conditions: test solution applied to tape-stripped stratum corneum, involucrin/Nile Red staining, mean of N = 3, water control 11.7
Protocol: as §1
Properties of each CE thus isolated were evaluated by the following method: CE was spotted on a piece of slide glass, air-dried and fixed in cold acetone. […] Excessive antibody was removed by washing, and the residue was reacted with Nile Red dye solution, sealed and observed with a fluorescence microscope. The observed images were taken into computer via CCD camera, and the ratio of involucrin positive immature CE and that of Nile Red-positive mature CE were evaluated using an image analysis software (Win Roof) or the like.

[3] = Table 3, one day, mean of N = 3, before treatment 28.3, 0.1 M MES buffer pH5.5 control 3.0
[4] = Table 2, one day, mean of N = 3, water control 36.9

Structure (SMILES): O[C@H](CS)[C@H](O)CS (racemic) [10 mM dithiothreitol, dithiothreitol]
- Ratio of Immature CE (%) [1, 3]: 0.33%

Structure (SMILES): [Ca+2].[Cl-].[Cl-] [1 mM calcium chloride, calcium chloride]
- Ratio of Immature CE (%) [1, 3]: 1.83%

Structure (SMILES): OCC(O)CO [10% glycerin, glycerin]
- Ratio of Immature CE (%) [1, 4]: 14.6%
- Ratio of Immature CE (%) [2]: 6.3%

Structure (SMILES): C[N+](C)(C)CC(=O)O [10% trimethyl glycine, trimethyl glycine]
- Ratio of Immature CE (%) [1, 4]: 9.3%
